Molecules are shown by their SMILES.

Data set [1] deals with nsCFTR-R553X-opal. Briefly: Immunofluorescence analysis of CFTR in nsCFTR-R553X-opal FRT cells. It counts as cell-based, human. Conditions: 12 μM, 24 hours. As for the experimental part:
(§1) FRT cells were also engineered with a vector expressing nsCFTR (nonsense). To this aim, Site […] Directed Mutagenesis of the full-length CFTR cDNA cloned in the pTracer Zeocin (pTCF-wild type) vector (provided by Gaslini Hospital Genova, Italy) was performed, the CFTR DNA is available at NCBI Reference Sequence NG_016465.4. With the aim of introducing in the CFTR cDNA single base mutations c1654t or c1657t to convert, respectively, […] 552 (caa>taa ochre) or Arginine 553 (cga>tga opal) in nonsense codons, site-directed mutagenesis of the full-length cDNA cloned in the pTracer Zeocin (pTCF-wild type) vector (provided by Gaslini Hospital Genova, Italy) was performed (CFTR DNA available at NCBI Reference Sequence: NG_016465.4). The pTCF-wild type vector was amplified by PCR with the following primers: […]
(§2) To further evaluate the efficacy of NV848, NV914 and NV930 FRT cells were transfected with the pTracer vectors containing either the WT-CFTR (CFTRWT) or the R553X-CFTR and the Q552X-CFTR (nsCFTR-R553X-opal, nsCFTR-Q552X ochre) human cDNA and selected by Zeocin resistance. The expression of the CFTRWT and nsCFTR CFTR (nsCFTR-R553X-opal, nsCFTR-Q552X ochre) in transfected FRT cells was evaluated by qRT-PCR. The nsCFTR-Q552X ochre, nsCFTR-R553X-opal FRT transfected cells were treated with NV848, (12 μM), and ATALUREN (12 μM) as positive control, for 24 hours and the expression of the human CFTR was evaluated by immunofluorescence analysis.

In data set [2] the test system is nsCFTR-Q552X ochre. The data set can be described thus: Immunofluorescence analysis of CFTR in nsCFTR-Q552X ochre FRT cells. It counts as cell-based, human. The following applies: 12 μM, 24 hours. As for the experimental part: as §1, §2
The test system of data set [3] is nsCFTR(G542X-opal). Briefly: Immunofluorescence analysis of CFTR in nsCFTR(G542X-opal) FRT cells. The following applies: 12 μM, 24 hours. It counts as cell-based, human. Here is the method: To work in a cell system containing exclusively nonsense mutations and in particular the more representative CFTR nonsense mutation, the G542X, FRT cells were engineered with a vector expressing nsCFTR (nonsense). To this aim, Site Directed Mutagenesis of the full-length CFTR cDNA cloned in the pTracer-Zeocin (pTCF-wild type) vector (Gaslini Hospital Genova, Italy) was performed (CFTR DNA available at NCBI Reference Sequence: NG_016465.4). To substitute the Glicine 542 coding codon GGA with a stop codon, was introduced a single nucleotide mutation. The first guanine of the codon, position 1624 of the cDNA, was changed in a thymine to introduce an opal nonsense mutation. We amplified the plasmid harbouring cDNA with the following primers: […]
To further evaluate the efficacy of NV914, NV848, NV930, FRT cells were transfected with the pTRACER vectors containing either the wild type CFTR or the nsCFTR(G542X-opal) cDNA and selected by Zeocin resistance. The advantage of the use of these cells is that they don't express cAMP dependent channels (as CFTR) or CFTR protein. The expression of the human CFTR wild type and nsCFTR(G542X-opal) in transfected FRT cells was evaluated by qRT-PCR and Western blot, as shown in FIG. 5.
The same FRT cells were then treated with NV914, NV848, NV930 (12 μM), and ATALUREN (12 μM) (as positive control) for 24 hours and the expression of the human CFTR wild type and nsCFTR(G542X-opal) was again evaluated by immunofluorescence analysis.
FRT cells transfected with a pTracer nsCFTR-G542X-opal vector the treated with NV848, NV914, NV930 (12 μM), and ATALUREN (12 μM) as positive control, for 24 hours and the expression of the human CFTR wild type and nsCFTR (nsCFTR-G542X-opal) was evaluated by immunofluorescence analysis.
In details, immunofluorescence analysis was used to detect the CFTR protein following the readthrough of the UGA stop codon in nsCFTR(opal) FRT cells untreated, treated with G418 as positive contro) and with PTC124 and NV848, Nv914, NV930 for 24 h. […] Nuclei (blue) were DAPI stained.

In data set [4] the test system is pFLuc-opal (UGA stop mutation). The data set can be described thus: FLuc cell-based readthrough assay in HeLa FLuc-opal transfected cells. Conditions: 12 μM, 24 hours treatment, pFluc-opal HeLa cells, compared to untreated. The source says: The results disclosed in (Pibiri I., Lentini L., Tutone M., Melfi R., Pace A., Di Leonardo A. Exploring the readthrough of nonsense mutations by non-acidic Ataluren analogues selected by ligand-based virtual screening. Eur. J. Med. Chem. 122 (2016) 429-435) have been refined with 3D-QSAR (quantitative structure-activity relationships) pharmacophore modelling. The endpoint to build QSAR models was the luciferase activity known data. These values were converted to pFLUC (−log FLUC) values. In order to find the common pharmacophore hypothesis, we divided the 24 compounds in three different classes of activity related to the FLUC values (Pharm set). We considered as active, compounds with FLUC values >4.52 (ATALUREN FLUC value), as inactives, compounds with FLUC values ≤4.00, and as moderate actives, compounds with 4.39≤FLUC values ≤4,51. Dataset was randomly split into a training set (19 compounds) for models generation, and test set (5 compounds) for the validation of developed models, as reported in Table 1.
To ascertain the effectiveness of the newly synthesized ataluren analogues in promoting the readthrough of premature termination codons was used the FLuc cell-based assay. To this aim HeLa cells were transfected transiently with the plasmids pFLuc-wild type (control) and pFLuc-opal (UGA stop mutation) (NIH Chemical Genomics Center, National Institutes of Health, Bethesda, USA). FLuc gene expression was then measured by luminescence.

The test system of data set [5] is HeLa cells. Briefly: Cytotoxic effects and impact on cell proliferation in HeLa cells. It counts as cell-based. The following applies: 12 μM. Here is the method: HeLa cells were used to determine the possible cytotoxic effects of our compounds and the impact on cell proliferation. In FIG. 7 are reported the percentages of dead cells and proliferating cells after treatment with 12 μM compounds and 12 μM ATALUREN.

Take `CC(=O)Nc1noc(C)n1` [NV848, 3-acetylamino-5-methyl-1,2,4-oxadiazole]: the “CFTR full-length expression and membrane localization” value in data set [1] is “induced the CFTR full-length expression and membrane localization”; in data set [2] it was “induced the CFTR full-length expression and membrane localization”; in data set [3], “induced the CFTR full-length expression and membrane localization”. In data set [4], the luciferase activity result is listed as “significant increase of luciferase activity”. In addition, the dead cells in data set [5] (24 h) is given as 7%; in data set [5] (72 h) it was 6%.
With `O=C(Nc1noc(-c2c(F)c(F)c(F)c(F)c2F)n1)c1c(F)c(F)c(F)c(F)c1F` [NV914, 2,3,4,5,6-pentafluoro-N-(5-(perfluorophenyl)-1,2,4-oxadiazol-3-yl)benzamide], the “CFTR full-length expression and membrane localization” value in data set [1] is “induced the CFTR full-length expression and membrane localization”; in data set [2] it was “induced the CFTR full-length expression and membrane localization”; in data set [3] it was “induced the CFTR full-length expression and membrane localization”. Moreover, the luciferase activity entry in data set [4] is “significant increase of luciferase activity”. In addition, the results for the dead cells in data set [5] (24 h) and in data set [5] (72 h) were 5% and 2%, respectively.
As for `CCOC(=O)c1noc(-c2ccccc2)n1` [NV930, ethyl 5-phenyl-1,2,4-oxadiazole-3-carboxylate], the “CFTR full-length expression and membrane localization” value was “induced the CFTR full-length expression and membrane localization” in data set [1]; “induced the CFTR full-length expression and membrane localization” in data set [2]; “induced the CFTR full-length expression and membrane localization” in data set [3]. For the same compound, in data set [4], the luciferase activity entry is “significant increase of luciferase activity”. The results for the dead cells in data set [5] (24 h) and in data set [5] (72 h) were 2% and 4%, respectively.

The values are drawn from patent publication US11203578B2, “Oxadiazole derivatives for the treatment of genetic diseases due to nonsense mutations” (UNIVERSITA' DEGLI STUDI DIPALERMO, priority 2017, dated 2021).
